The target in test [1] is Actin, alpha skeletal muscle (Oryctolagus cuniculus) (UniProt P68135). Description: Inhibition of immobilized rabbit skeletal muscle alpha-actin interaction with cofilin at 56 uM pretreated for 30 mins followed by cofilin addition measured after 1 hr by pull-down assay.
For test [2] the target is unchanged. The experiment in a line: Inhibition of immobilized rabbit skeletal muscle alpha-actin interaction with gelsolin at 12.5 uM pretreated for 30 mins followed by gelsolin addition measured after 1 hr by pull-down assay.
For test [3] the target is unchanged. Description: Inhibition of immobilized rabbit skeletal muscle alpha-actin interaction with profilin at 66.7 uM pretreated for 30 mins followed by profilin addition measured after 1 hr by pull-down assay.
Test [4] has the same target. The experiment in a line: (§1) Inhibition of rabbit skeletal muscle alpha-actin polymerization measured after 24 hrs in presence of ATP and fluorescent pyrene-labelled actin by fluorescence based assay.
For test [5], the target named is Actin, alpha skeletal muscle (Oryctolagus cuniculus, UniProt P68135). Described as §1.
Test [6] has as its system HUVEC. Description: Antiproliferative activity against human HUVEC measured after 72 hrs. Type of test: cell-based.
Test [7] relates to HUVEC. Description: Inhibition of cell migration in human HUVEC cells assessed as decrease in cell velocity measured after 16 hrs by crystal violet staining based scratch assay. Type of test: functional.
Test [8] addresses Actin, alpha skeletal muscle (Oryctolagus cuniculus) (UniProt P68135). Description: Inhibition of immobilized rabbit skeletal muscle alpha-actin interaction with thymosin-beta4 at 40 uM pretreated for 30 mins followed by thymosin-beta4 addition measured after 45 mins by cross-linking assay.
For test [9] the target is unchanged. The experiment in a line: Binding affinity to immobilized rabbit skeletal muscle alpha-actin assessed as formation of G-actin dimers at 40 uM and pH 6.8 to 8 treated for 30 mins in absence of thymosin-beta4 by size-exclusion chromatography. Background: SEC sorts molecules by how far they enter the pores of the column.
For test [10] the target is unchanged. Description: Inhibition of immobilized rabbit skeletal muscle alpha-actin interaction with thymosin-beta4 assessed as decrease in cross-linked complex formation at 40 uM pretreated for 30 mins followed by thymosin-beta4 addition measured after 45 mins by cross-linking assay.
For test [11] the target is unchanged. Description: Inhibition of rabbit skeletal muscle alpha-actin nucleation at 500 nM to 5 uM in presence of Turkey gizzard alpha-actinin and […] fluorescent labelled actin by TIRF microscopy analysis.
Test [12] shares this target. Description: Inhibition of rabbit skeletal muscle alpha-actin polymerization induced by Mg-ATP assessed as decrease in elongation rate at 500 nM to 5 uM measured every 1 sec for 5 mins in presence of Turkey gizzard alpha-actinin and […] fluorescent labelled actin by TIRF microscopy analysis.
Test [13] shares this target. Description: Induction of rabbit skeletal muscle alpha-actin depolymerization assessed as destabilization of F-actin 5 uM measured every 15 sec for 90 mins in presence of Turkey gizzard alpha-actinin and […] fluorescent labelled actin by TIRF microscopy analysis.
In test [14] the test system is HUVEC. The experiment in a line: Induction of morphological changes in human HUVEC cells assessed as disruption of F-actin fibers at 10 nM to 100 nM incubated for 1 hr by rhodamine-phalloidin staining based fluorescence assay. Type of test: functional, cell-based.
Test [15] deals with HUVEC. The experiment in a line: Induction of morphological changes in human HUVEC cells assessed as amorphous actin aggregation in nucleus incubated for 1 hr by Hoechst staining based fluorescence assay. Type of test: functional, cell-based.
Test [16] deals with Actin, alpha skeletal muscle (Oryctolagus cuniculus) (UniProt P68135). Description: Binding affinity to immobilized rabbit skeletal muscle alpha-actin assessed change in retention time of G-actin dimers at 40 uM and pH 6.8 to 8 treated for 30 mins in absence of thymosin-beta4 by size-exclusion chromatography.

Consider 3 compounds from ChEMBL document CHEMBL4334448, “Chivosazole A Modulates Protein-Protein Interactions of Actin” (J Nat Prod, 2019).

The source made the active and inactive calls. The rule behind the calls is not given here.

As to `CO[C@@H]1C[C@@H](O)/C=C/C=C/C=C\[C@H](C)[C@@H]([C@@H](C)[C@@H](O)C[C@@H](C)O)OC(=O)\C=C/C=C/C=C\C(C)=C\[C@@H](C)[C@@H](O)/C=C\C=C\c2coc(n2)[C@@H]1C`, the inhibition entry in test [1], in test [2] and in [3] was “Active” each time.

Consider `C/C1=C/C(=O)O[C@@H]2C[C@@H](CC[C@H](C)/C=C\CC1)O[C@@](O)([C@@H]1CSC(=O)N1)C2` [LATRUNCULIN B], for which the inhibition result in test [4] is “Dose-dependent effect”. Moreover, the IC50 (usually the concentration needed to halve the response being measured) came to 8470 nM in test [5], 612 nM with HUVEC [6] and 478 nM in the test on HUVEC [7]. In addition, the inhibition result in [1], in test [2] and in [3] was “inactive” in each case. Besides, the inhibition result in test [8] was “Active”. For the same compound, the result in test [9] was inactive. For the same compound, the result in test [10] was Active.

With `CO[C@H]1[C@H](O[C@H]2/C=C\C=C\c3coc(n3)[C@H](C)[C@H](OC)C[C@@H](O)/C=C/C=C/C=C\[C@H](C)[C@@H]([C@@H](C)[C@@H](O)C[C@@H](C)O)OC(=O)\C=C/C=C/C=C\C(C)=C\[C@H]2C)O[C@H](C)[C@@H](O)[C@@H]1OC`, the inhibition result in test [4] is “Dose-dependent effect”. Besides, the figures for the IC50 (in [5]; in the test with HUVEC [6]; with HUVEC [7]) were 15200 nM, 2.98 to 3 nM and 31.7 nM, respectively. The inhibition result in [11], in test [12], in [1], in [2], in test [3] and in test [8] was “Active” each time. Moreover, the outcome (in test [13]; with HUVEC [14]; with HUVEC [15]; in [9]; in [10]; in test [16]) was Active.
